Values quoted from earlier work, collected in patent publication US20230330191A1, “METHODS OF STIMULATING BONE GROWTH WITH ABALOPARATIDE AND DENOSUMAB” (Radius Health, Inc., priority 2020, published 2023).

Tests used:
[1] = system: ovariectomy-induced osteopenia animal models
RANKL:OPG ratio = details: Makino, CTI 2018
[2] = in vivo
[3] = in vivo; remark: listed apart in the source

Question: For `CC[C@H](C)[C@H](NC(=O)[C@H](CCC(=O)O)NC(=O)[C@H](CO)NC(=O)[C@@H](NC(=O)[C@@H](N)CO)C(C)C)C(=O)N[C@@H](CCC(N)=O)C(=O)N[C@@H](CC(C)C)C(=O)N[C@@H](CCSC)C(=O)N[C@@H](Cc1cnc[nH]1)C(=O)N[C@@H](CC(N)=O)C(=O)N[C@@H](CC(C)C)C(=O)NCC(=O)N[C@@H](CCCCN)C(=O)N[C@@H](Cc1cnc[nH]1)C(=O)N[C@@H](CC(C)C)C(=O)N[C@@H](CC(N)=O)C(=O)N[C@@H](CO)C(=O)N[C@@H](CCSC)C(=O)N[C@@H](CCC(=O)O)C(=O)N[C@@H](CCCN=C(N)N)C(=O)N[C@H](C(=O)N[C@@H](CCC(=O)O)C(=O)N[C@@H](Cc1c[nH]c2ccccc12)C(=O)N[C@@H](CC(C)C)C(=O)N[C@@H](CCCN=C(N)N)C(=O)N[C@@H](CCCCN)C(=O)N[C@@H](CCCCN)C(=O)N[C@@H](CC(C)C)C(=O)N[C@@H](CCC(N)=O)C(=O)N[C@@H](CC(=O)O)C(=O)N[C@H](C(=O)N[C@@H](Cc1cnc[nH]1)C(=O)N[C@@H](CC(N)=O)C(=O)N[C@@H](Cc1ccccc1)C(=O)O)C(C)C)C(C)C` [teriparatide], which “total hip BMD” value (women; 2 years of teriparatide after 2 years of denosumab, versus mean BMD at end of denosumab treatment (Leder, Lancet 2015)) is on record?
Answer: The value was “remains below the mean BMD”.

Question: And the “BMD in the hip and femoral neck” value (women; switching from denosumab to teriparatide)?
Answer: Its value is “substantial BMD loss”.

Question: Which “effects of denosumab withdrawal on bone” value (women; after withdrawal (Cummings JBMR 2017)) does the source give for “Denosumab: fully human monoclonal IgG antibody with affinity and specificity for human receptor activator of nuclear factor kappa-B ligand (RANKL)” here?
Answer: The value was “dramatic increased bone remodeling, rapid prominent bone loss, and multiple vertebral fractures”.

Question: Which “bone loss (bone anabolic activity)” value [1] does the source give for “[Glu22,25, Leu23,28,31, Aib29, Lys26,30]hPTHrP(1-34)NH2 [abaloparatide]” here?
Answer: Its value is “complete reversal of bone loss”.

Question: What about the “RANKL and OPG expression, RANKL:OPG ratio” value (RANKL:OPG ratio) of the same compound?
Answer: The value was “upregulates RANKL and reduces OPG, increasing the RANKL:OPG ratio”.

Question: And the “increases in BMD compared with cathepsin K inhibitor drugs or PTH-like drugs such as teriparatide” value [2]?
Answer: The value was “substantially faster and greater”.

Question: And the “potential to induce hypercalcemia compared to teriparatide” value [2]?
Answer: The value was “lower potential to induce hypercalcemia”.

Question: What about the “incidence of the most common adverse reactions (hypercalciuria, dizziness, nausea, headache, palpitations, fatigue, upper abdominal pain, vertigo)” value [3] of the same compound?
Answer: The value was greater than 2%.
